Results: PubChem BioAssay (NCI)
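Where inhibition never reached the appropriate level, the endpoint shown equals the highest concentration tested. Otherwise, values were interpolated linearly from a five-concentration, 48-hour dose response in 96-well plates. GI50 = concentration required for 50% inhibition of growth. TGI is the concentration that stops growth completely.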

Tests used:
Test in all cases: DTP human tumour cell line panel, 48 h
[1] = test system: COLO 205 colon
[2] = test system: UACC-62 melanoma
[3] = test system: HT29 colon
[4] = test system: OVCAR-4 ovarian
[5] = test system: A549 NSCLC
[6] = test system: OVCAR-8 ovarian
[7] = test system: SK-MEL-28 melanoma
[8] = test system: M14 melanoma
[9] = test system: ACHN renal
[10] = test system: 786-0 renal
[11] = test system: SK-OV-3 ovarian
[12] = test system: CCRF-CEM leukemia
[13] = test system: HCC-2998 colon
[14] = test system: CAKI-1 renal
[15] = test system: SF-539 CNS
[16] = test system: DU-145 prostate
[17] = test system: LOX IMVI melanoma
[18] = test system: MCF7 breast
[19] = test system: EKVX NSCLC
[20] = test system: NCI/ADR-RES ovarian
[21] = test system: NCI-H460 lung
[22] = test system: A498 renal
[23] = test system: K-562 leukemia
[24] = test system: MOLT-4 leukemia
[25] = test system: MDA-MB-468 breast
[26] = test system: HOP-92 NSCLC
[27] = test system: IGROV1 ovarian
[28] = test system: SK-MEL-2 melanoma
[29] = test system: RPMI-8226 leukemia
[30] = test system: U251 CNS

Cc1cccc(/C=C/c2ccc(NC(=S)NCCCCN(C)C)cc2)c1
TGI [1]: 33.5 µM
GI50 [2]: 15.9 µM
TGI [2]: 29.6 µM
GI50 [3]: 5.38 µM
TGI [3]: 29.9 µM
GI50 [4]: 14.8 µM
TGI [4]: 29 µM
GI50 [5]: 18.4 µM
TGI [5]: 39.8 µM
GI50 [6]: 18.9 µM
TGI [6]: 38.1 µM
GI50 [7]: 15.6 µM
TGI [7]: 29.3 µM
GI50 [8]: 15.4 µM
TGI [8]: 31.6 µM
GI50 [9]: 16.3 µM
TGI [9]: 29.9 µM
GI50 [10]: 14.9 µM
TGI [10]: 30.1 µM
GI50 [11]: 19.7 µM
TGI [11]: 36.4 µM
GI50 [12]: 11.7 µM
TGI [12]: 37.3 µM
GI50 [13]: 15.1 µM
TGI [13]: 29.9 µM
GI50 [14]: 14.5 µM
TGI [14]: 27.9 µM
GI50 [15]: 13.4 µM
TGI [15]: 26.3 µM
GI50 [16]: 15.1 µM
TGI [16]: 29.2 µM
GI50 [17]: 11.6 µM
TGI [17]: 25.4 µM
GI50 [18]: 11.8 µM
TGI [18]: 27.5 µM
GI50 [19]: 16.2 µM
TGI [19]: 31.2 µM
GI50 [20]: 16.3 µM
TGI [20]: 32.3 µM
GI50 [21]: 12.8 µM
TGI [21]: 27.3 µM
GI50 [22]: 13.5 µM
TGI [22]: 27.4 µM
GI50 [23]: 3.96 µM
TGI [23]: > 100 µM
GI50 [24]: 13.4 µM
TGI [24]: 37.5 µM
GI50 [25]: 12.7 µM
TGI [25]: 26.6 µM
GI50 [26]: 8.39 µM
TGI [26]: 24.3 µM
GI50 [27]: 16.6 µM
TGI [27]: 31.2 µM
GI50 [28]: 18.5 µM
TGI [28]: 34.9 µM
GI50 [29]: 20.1 µM
TGI [29]: 72.4 µM
GI50 [30]: 16.1 µM
TGI [30]: 33.7 µM
